Reference: patent US20230257364A1, “PYRIDAZINONE-BASED COMPOUNDS AS AXL, C-MET, AND MER INHIBITORS AND METHODS OF USE THEREOF” (CMG Pharmaceutical Co., Ltd., priority 2022, published 2023)
Where two headings read alike, the source gives them in different places.

Key:
Type in all cases: biochemical
[1] = biological target: C-MET (Homo sapiens, UniProt P08581); assay: Enzymatic kinase assay (ADP-GLO), C-MET
Protocol: (§1) This example illustrates an enzymatic assay to determine the inhibitory activity of exemplary compounds of Formula (I) in an aspect of the invention.
All the kinase reactions were performed in 5 μL using tyrosine kinase buffer with 0.2 μg/μL poly (Glu4, Tyr1) substrate, 10 μM ATP, serial dilution of the inhibitor, and incubated at room temperature for 60 min. After the indicated incubation times, 5 μL ADP-GLO™ reagent (Promega, Madison, Wis.) was added to the reactions and the plate was incubated at room temperature for 40 min. […] All 384-well assay plates were read using a GLOMAX™ Discover Microplate Luminometer from Promega (Madison, Wis.). To plot, analyze the data and calculate all kinase reaction biochemical values, both Microsoft Excel and Prism from GraphPad 7 Software (La Jolla, Calif.) were used.

[2] = biological target: T1, AXL (Homo sapiens, UniProt P30530); assay: Enzymatic kinase assay (ADP-GLO), AXL; settings: 10 μM ATP, poly (Glu4, Tyr1) substrate, 60 min room temperature, luminescence
T1 sequence (P30530 26-894): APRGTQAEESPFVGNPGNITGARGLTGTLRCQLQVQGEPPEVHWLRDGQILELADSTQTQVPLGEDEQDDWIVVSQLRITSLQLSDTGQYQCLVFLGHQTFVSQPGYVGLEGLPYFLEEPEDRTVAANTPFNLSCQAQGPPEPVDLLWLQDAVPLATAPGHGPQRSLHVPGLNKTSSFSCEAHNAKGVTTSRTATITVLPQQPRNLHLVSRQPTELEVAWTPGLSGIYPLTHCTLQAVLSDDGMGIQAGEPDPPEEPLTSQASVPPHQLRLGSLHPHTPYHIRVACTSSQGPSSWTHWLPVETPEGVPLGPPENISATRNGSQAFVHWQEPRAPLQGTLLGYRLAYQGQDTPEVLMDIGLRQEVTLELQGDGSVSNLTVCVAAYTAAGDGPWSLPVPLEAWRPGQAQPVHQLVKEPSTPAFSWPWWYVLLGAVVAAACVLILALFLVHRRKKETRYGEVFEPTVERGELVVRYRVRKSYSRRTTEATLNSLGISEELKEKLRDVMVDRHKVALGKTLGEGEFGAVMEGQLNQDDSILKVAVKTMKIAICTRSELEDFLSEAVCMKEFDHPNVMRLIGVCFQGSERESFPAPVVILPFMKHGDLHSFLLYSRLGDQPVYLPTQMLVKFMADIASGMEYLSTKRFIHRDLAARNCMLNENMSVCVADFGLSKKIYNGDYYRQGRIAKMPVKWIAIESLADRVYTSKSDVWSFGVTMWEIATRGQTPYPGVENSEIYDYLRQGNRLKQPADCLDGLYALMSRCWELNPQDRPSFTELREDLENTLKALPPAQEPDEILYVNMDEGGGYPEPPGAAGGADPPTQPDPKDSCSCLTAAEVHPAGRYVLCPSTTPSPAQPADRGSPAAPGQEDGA
Protocol: as §1
(§2) All the kinase reactions were performed in 5 μL using tyrosine kinase buffer with 0.2 μg/μL poly (Glu4, Tyr1) substrate, 10 μM ATP, serial dilution of the inhibitor, and incubated at room temperature for 60 min. After the indicated incubation times, 5 μL ADP-GLO™ reagent (Promega, Madison, Wis.) was added to the reactions and the plate was incubated at room temperature for 40 min. Then, 10 μL of kinase detection reagent was added and after an incubation time of 40 min, luminescence was recorded and IC50 values were determined (Table 1). All 384-well assay plates were read using a GLOMAX™ Discover Microplate Luminometer from Promega (Madison, Wis.). To plot, analyze the data and calculate all kinase reaction biochemical values, both Microsoft Excel and Prism from GraphPad 7 Software (La Jolla, Calif.) were used.

[3] = biological target: T2, MER (Homo sapiens, UniProt Q12866); assay: Enzymatic kinase assay (ADP-GLO), MER; settings: 10 μM ATP, poly (Glu4, Tyr1) substrate, 60 min room temperature, luminescence
T2 sequence (Q12866 21-999): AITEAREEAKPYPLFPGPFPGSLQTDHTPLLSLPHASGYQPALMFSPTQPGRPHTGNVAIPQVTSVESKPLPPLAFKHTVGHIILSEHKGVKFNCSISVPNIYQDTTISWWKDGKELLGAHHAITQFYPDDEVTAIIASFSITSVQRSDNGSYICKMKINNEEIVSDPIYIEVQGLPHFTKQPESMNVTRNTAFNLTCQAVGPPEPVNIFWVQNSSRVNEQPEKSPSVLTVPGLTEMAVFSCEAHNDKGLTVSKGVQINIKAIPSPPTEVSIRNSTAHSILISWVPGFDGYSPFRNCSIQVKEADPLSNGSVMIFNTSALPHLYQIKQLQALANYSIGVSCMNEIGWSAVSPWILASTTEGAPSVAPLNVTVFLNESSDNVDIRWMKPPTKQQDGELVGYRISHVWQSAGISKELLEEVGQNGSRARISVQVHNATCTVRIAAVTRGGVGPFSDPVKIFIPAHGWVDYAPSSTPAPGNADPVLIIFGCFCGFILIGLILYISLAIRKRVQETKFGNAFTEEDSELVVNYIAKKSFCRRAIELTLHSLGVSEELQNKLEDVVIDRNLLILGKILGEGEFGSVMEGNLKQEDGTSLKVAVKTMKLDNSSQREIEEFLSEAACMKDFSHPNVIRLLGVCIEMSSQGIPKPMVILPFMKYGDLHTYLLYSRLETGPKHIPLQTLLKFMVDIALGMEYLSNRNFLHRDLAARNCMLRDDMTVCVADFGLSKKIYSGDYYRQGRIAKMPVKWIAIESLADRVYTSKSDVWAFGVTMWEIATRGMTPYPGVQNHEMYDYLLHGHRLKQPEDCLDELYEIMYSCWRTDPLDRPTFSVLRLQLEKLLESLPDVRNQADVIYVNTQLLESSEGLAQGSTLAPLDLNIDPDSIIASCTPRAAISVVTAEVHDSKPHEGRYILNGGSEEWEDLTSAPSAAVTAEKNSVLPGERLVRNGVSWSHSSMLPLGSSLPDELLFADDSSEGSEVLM
Protocol: as §1, §2

[4] = 10 μM ATP, poly (Glu4, Tyr1) substrate, 60 min room temperature, luminescence, read-out: Enzymatic assay IC50 (nM) C-MET

C-MET, sequence (P08581 25-1390): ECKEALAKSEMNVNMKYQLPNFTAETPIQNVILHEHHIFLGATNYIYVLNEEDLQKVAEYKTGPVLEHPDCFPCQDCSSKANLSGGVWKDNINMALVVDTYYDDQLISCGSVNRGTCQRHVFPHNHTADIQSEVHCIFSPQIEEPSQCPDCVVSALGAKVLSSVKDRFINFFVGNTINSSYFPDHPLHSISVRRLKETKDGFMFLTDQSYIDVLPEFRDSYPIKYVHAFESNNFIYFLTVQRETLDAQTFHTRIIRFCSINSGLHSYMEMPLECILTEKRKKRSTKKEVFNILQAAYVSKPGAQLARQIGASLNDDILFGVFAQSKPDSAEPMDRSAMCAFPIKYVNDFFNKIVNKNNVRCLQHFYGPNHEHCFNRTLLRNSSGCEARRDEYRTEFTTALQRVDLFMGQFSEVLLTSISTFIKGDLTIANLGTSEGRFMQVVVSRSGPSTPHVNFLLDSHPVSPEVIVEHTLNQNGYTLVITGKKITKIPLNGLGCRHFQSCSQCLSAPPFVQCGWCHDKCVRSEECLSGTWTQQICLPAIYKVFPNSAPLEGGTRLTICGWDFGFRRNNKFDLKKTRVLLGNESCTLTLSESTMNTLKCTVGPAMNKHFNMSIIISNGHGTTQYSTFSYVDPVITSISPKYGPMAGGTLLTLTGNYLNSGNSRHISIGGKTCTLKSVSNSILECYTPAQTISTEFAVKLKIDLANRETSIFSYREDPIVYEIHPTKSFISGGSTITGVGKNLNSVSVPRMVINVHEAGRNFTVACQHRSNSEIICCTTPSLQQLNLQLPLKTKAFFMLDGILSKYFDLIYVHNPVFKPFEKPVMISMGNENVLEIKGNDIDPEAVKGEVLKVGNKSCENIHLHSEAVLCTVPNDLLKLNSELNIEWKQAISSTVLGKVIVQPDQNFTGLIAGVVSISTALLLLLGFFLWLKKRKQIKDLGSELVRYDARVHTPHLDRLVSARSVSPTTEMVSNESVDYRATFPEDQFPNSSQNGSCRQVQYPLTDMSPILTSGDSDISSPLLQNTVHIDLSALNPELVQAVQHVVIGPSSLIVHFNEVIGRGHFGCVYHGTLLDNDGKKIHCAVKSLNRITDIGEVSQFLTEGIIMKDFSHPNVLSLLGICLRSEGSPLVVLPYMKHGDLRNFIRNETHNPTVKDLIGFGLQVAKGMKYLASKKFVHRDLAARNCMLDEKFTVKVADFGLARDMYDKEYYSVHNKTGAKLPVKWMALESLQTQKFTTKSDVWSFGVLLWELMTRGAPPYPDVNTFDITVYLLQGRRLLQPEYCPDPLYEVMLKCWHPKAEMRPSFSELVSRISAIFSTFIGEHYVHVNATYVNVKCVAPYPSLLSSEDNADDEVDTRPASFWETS

| IC50 [1, 4] | IC50 [2] | IC50 [3] | IC50 [1] | Structure (SMILES) |
| --- | --- | --- | --- | --- |
| > 1000 nM | < 1000 nM | < 1000 nM |  | Nc1nccc(Oc2ccc(NC(=O)c3ccnn(-c4ccc(F)cc4)c3=O)cc2F)c1-c1ccc(Oc2ccccc2)cc1 [Example 20, N-(4-(2-amino-3-(4-phenoxyphenyl)pyridin-4-yloxy)-3-fluorophenyl)-2-4-(fluorophenyl)-3-oxo-2,3-dihydropyridazine-4-carboxamide] |
| > 1000 nM | < 10 nM | < 100 nM |  | CCCn1cc(-c2c(Oc3ccc(NC(=O)c4ccnn(-c5ccc(F)cc5)c4=O)cc3F)ccnc2N)cn1 [Example 21, N-(4-(2-amino-3-(1-propyl-1H-pyrazol-4-yl)pyridin-4-yloxy)-3-fluorophenyl)-2-(4-fluorophenyl)-3-oxo-2,3-dihydropyridazine-4-carboxamide] |
| < 100 nM | < 10 nM | < 100 nM |  | CC(C)(C#Cc1c(Oc2ccc(NC(=O)c3ccnn(-c4ccc(F)cc4)c3=O)cc2F)ccnc1N)N1CCNCC1 [Example 22, N-(4-(2-amino-3-(3-methyl-3-(piperazin-1-yl)but-1-ynyl)pyridin-4-yloxy)-3-fluorophenyl)-2-(4-fluorophenyl)-3-oxo-2,3-dihydropyridazine-4-carboxamide] |
| < 100 nM | < 10 nM | < 100 nM |  | COCCN1CCN(C(C)(C)C#Cc2c(Oc3ccc(NC(=O)c4ccnn(-c5ccc(F)cc5)c4=O)cc3F)ccnc2N)CC1 [Example 23, N-(4-(2-amino-3-(3-(4-(2-methoxyethyl)piperazin-1-yl)-3-methylbut-1-ynyl)pyridine-4-yloxy)-3-fluorophenyl)-2-(4-fluorophenyl)-3-oxo-2,3-dihydropyridazine-4-carboxamide] |
| < 100 nM | < 10 nM | < 10 nM |  | COCCN1CCN(CC#Cc2c(Oc3ccc(NC(=O)c4ccnn(-c5ccc(F)cc5)c4=O)cc3F)ccnc2N)CC1 [Example 24] |
| < 10 nM | < 10 nM | > 1000 nM |  | Nc1nccc(Oc2ccc(NC(=O)c3ccnn(-c4ccc(F)cc4)c3=O)cc2F)c1C#CC1CCNCC1 [Example 25, N-(4-(2-amino-3-(piperidin-4-ylethynyl)pyridine-4-yloxy)-3-fluorophenyl)-2-(4-fluorophenyl)-3-oxo-2,3-dihydropyridazine-4-carboxamide] |
| < 10 nM | < 10 nM | > 1000 nM |  | CN1CCC(C#Cc2c(Oc3ccc(NC(=O)c4ccnn(-c5ccc(F)cc5)c4=O)cc3F)ccnc2N)CC1 [Example 26, N-(4-(2-amino-3-((1-methylpiperidin-4-yl)ethynyl)pyridin-4-yloxy)-3-fluorophenyl)-2-(4-fluorophenyl)-3-oxo-2,3-dihydropyridazine-4-carboxamide] |
| < 10 nM | < 10 nM | < 10 nM |  | COCCN1CCC(C#Cc2c(Oc3ccc(NC(=O)c4ccnn(-c5ccc(F)cc5)c4=O)cc3F)ccnc2N)CC1 [Example 27, N-(4-(2-amino-3-((1-(2-methoxyethyl)piperidin-4-yl)ethynyl)pyridin-4-yloxy)-3-fluorophenyl)-2-(4-fluorophenyl)-3-oxo-2,3-dihydropyridazine-4-carboxamide] |
| < 10 nM | < 10 nM | < 100 nM |  | CC(C)(C#Cc1c(Oc2ccc(NC(=O)c3ccnn(-c4ccc(F)cc4)c3=O)cc2F)ccnc1N)N1CCOCC1 [Example 28, N-(4-(2-amino-3-(3-methyl-3-morpholinobut-1-ynl)pyridin-4-yloxy)-3-fluorophenyl)-2-(4-fluorophenyl)-3-oxo-2,3-dihydropyridazine-4-carboxamide] |
| < 10 nM | < 10 nM | < 10 nM |  | CN1CCN(CC#Cc2c(Oc3ccc(NC(=O)c4ccnn(-c5ccc(F)cc5)c4=O)cc3F)ccnc2N)CC1 [Example 29, N-(4-(2-amino-3-(3-(4-methylpiperazin-1-yl)prop-1-ynyl)pyridin-4-yloxy)-3-fluorophenyl)-2-(4-fluorophenyl)-3-oxo-2,3-dihydropyridazine-4-carboxamide] |
|  | < 10 nM | < 10 nM | < 10 nM | Nc1nccc(Oc2ccc(NC(=O)c3ccnn(-c4ccc(F)cc4)c3=O)cc2F)c1C#CCC1CCNCC1 [Example 30, N-(4-(2-amino-3-(3-(piperidin-4-yl)prop-1-ynyl)pyridin-4-yloxy)-3-fluorophenyl)-2-(4-fluorophenyl)-3-oxo-2,3-dihydropyridazine-4-carboxamide] |
| < 10 nM | < 100 nM | < 100 nM |  | COCCN1CCC(CC#Cc2c(Oc3ccc(NC(=O)c4ccnn(-c5ccc(F)cc5)c4=O)cc3F)ccnc2N)CC1 [Example 31, N-(4-(2-amino-3-(3-(1-(2-methoxyethyl)piperidin-4-yl)prop-1-ynyl)pyridin-4-yloxy)-3-fluorophenyl)-2-(4-fluorophenyl)-3-oxo-2,3-dihydropyridazine-4-carboxamide] |
| < 100 nM | < 100 nM | < 100 nM |  | CC(C)N1CCC(CC#Cc2c(Oc3ccc(NC(=O)c4ccnn(-c5ccc(F)cc5)c4=O)cc3F)ccnc2N)CC1 [Example 32, N-(4-(2-amino-3-(3-(1-isopropylpiperidin-4-yl)prop-1-ynyl)pyridin-4-yloxy)-3-fluorophenyl)-2-(4-fluorophenyl)-3-oxo-2,3-dihydropyridazine-4-carboxamide] |
